Laboratory results from ChEMBL document CHEMBL3217498, “Structure and antimicrobial properties of multivalent short peptides” (Medchemcomm, 2011).
Converted amounts (≈) assume the structure as drawn. The source made the active and inactive calls. The rule behind the calls is not given here. Non-standard residues stand in square brackets, D forms with d. Residues, ends and D or L forms follow the SMILES beside them. Groups on a side chain read outwards from the residue. *: point of attachment. Lys(α,ε-(ArgTrp)2) = N=C(N)NCCC[C@H](N)C(=O)N[C@@H](Cc1c[nH]c2ccccc12)C(=O)NCCCC[C@H](NC(=O)[C@H](Cc1c[nH]c2ccccc12)NC(=O)[C@@H](N)CCCNC(=N)N)C(=O)*; βAla = NCCC(=O)O

Assays:
[1] = test system: Escherichia coli; assay: Antibacterial activity against ampicillin and streptomycin-resistant Escherichia coli D31 assessed as growth inhibition after 18 hrs by standard broth microdilution assay; format: functional, organism-based; details: D31, 18 h
[2] = Induction of hemolysis in sheep erythrocytes after 60 mins by spectrophotometer analysis; format: cell-based, Ovis aries, Erythrocyte; details: read-out: HD50
[3] = test system: Acinetobacter baumannii; assay: Antibacterial activity against multidrug-resistant Acinetobacter baumannii ATCC BAA-747 assessed as growth inhibition after 18 hrs by standard broth microdilution assay; format: functional, organism-based; details: ATCC BAA-747, 18 h
[4] = test system: Staphylococcus aureus; assay: Antibacterial activity against multidrug-resistant Staphylococcus aureus ATCC BAA-44 assessed as growth inhibition after 18 hrs by standard broth microdilution assay; format: functional, organism-based; details: ATCC BAA-44, 18 h
[5] = test system: Acinetobacter baumannii; assay: Antibacterial activity against multidrug-resistant Acinetobacter baumannii ATCC BAA-747 assessed as growth inhibition measured over 400 generation period by standard broth microdilution assay relative to 50% growth inhibition after first day; format: functional
[6] = test system: Staphylococcus aureus; assay: Antibacterial activity against multidrug-resistant Staphylococcus aureus ATCC BAA-44 assessed as growth inhibition measured over 400 generation period by standard broth microdilution assay relative to 50% growth inhibition after first day; format: functional
[7] = Ratio of compound hemolytic index to indolicidin hemolytic index for ratio of HD50 for sheep erythrocytes to IC50 for Staphylococcus aureus ATCC BAA-44
[8] = test system: Escherichia coli; assay: Antibacterial activity against ampicillin and streptomycin-resistant Escherichia coli D31 assessed as growth inhibition measured over 400 generation period by standard broth microdilution assay; format: functional, organism-based
[9] = test system: Acinetobacter baumannii; assay: Antibacterial activity against multidrug-resistant Acinetobacter baumannii ATCC BAA-747 assessed as growth inhibition measured over 400 generation period by standard broth microdilution assay; format: functional, organism-based
[10] = test system: Staphylococcus aureus; assay: Antibacterial activity against multidrug-resistant Staphylococcus aureus ATCC BAA-44 assessed as growth inhibition measured over 400 generation period by standard broth microdilution assay; format: functional, organism-based
[11] = Ratio of compound hemolytic index to indolicidin hemolytic index for ratio of HD50 for sheep erythrocytes to IC50 for Escherichia coli D31
[12] = test system: Escherichia coli; assay: Antibacterial activity against ampicillin and streptomycin-resistant Escherichia coli D31 assessed as growth inhibition measured over 400 generation period by standard broth microdilution assay relative to 50% growth inhibition after first day; format: functional

Molecule	IC50 [1] [µg/mL]	HC50 at 1 h [2] [µg/mL]	IC50 [3] [µg/mL]	IC50 [4] [µg/mL]	also measured
NCCCC[C@H](N)C(=O)N[C@@H](Cc1ccccc1)C(=O)NCCCC[C@H](NC(=O)[C@H](Cc1ccccc1)NC(=O)[C@@H](N)CCCCN)C(=O)NCCCC[C@H](NC(=O)[C@H](CCCCNC(=O)[C@H](Cc1ccccc1)NC(=O)[C@@H](N)CCCCN)NC(=O)[C@H](Cc1ccccc1)NC(=O)[C@@H](N)CCCCN)C(=O)NCCC(N)=O	77 (≈ 48.9 µM)	2500	175 (≈ 111 µM)	145 (≈ 92.1 µM)	
N=C(N)NCCC[C@H](N)C(=O)N[C@@H](Cc1ccccc1)C(=O)NCCCC[C@H](NC(=O)[C@H](Cc1ccccc1)NC(=O)[C@@H](N)CCCNC(=N)N)C(=O)NCCCC[C@H](NC(=O)[C@H](CCCCNC(=O)[C@H](Cc1ccccc1)NC(=O)[C@@H](N)CCCNC(=N)N)NC(=O)[C@H](Cc1ccccc1)NC(=O)[C@@H](N)CCCNC(=N)N)C(=O)NCCC(N)=O	30 (≈ 17.8 µM)	2780	160 (≈ 94.9 µM)	180 (≈ 107 µM)	
NCCCC[C@H](N)C(=O)N[C@@H](Cc1c[nH]c2ccccc12)C(=O)NCCCC[C@H](NC(=O)[C@H](Cc1c[nH]c2ccccc12)NC(=O)[C@@H](N)CCCCN)C(=O)NCCCC[C@H](NC(=O)[C@H](CCCCNC(=O)[C@H](Cc1c[nH]c2ccccc12)NC(=O)[C@@H](N)CCCCN)NC(=O)[C@H](Cc1c[nH]c2ccccc12)NC(=O)[C@@H](N)CCCCN)C(=O)NCCC(N)=O	30.6 (≈ 17.7 µM)	1460	52 (≈ 30.1 µM)	23.3 (≈ 13.5 µM)	
O=C(O)c1cn(C2CC2)c2cc(N3CCNCC3)c(F)cc2c1=O [CIPROFLOXACIN]					fold change (FC) [5]: 43
N=C(N)NCCC[C@H](NC(=O)[C@H](Cc1c[nH]c2ccccc12)NC(=O)[C@@H](N)CCCNC(=N)N)C(=O)N[C@@H](Cc1c[nH]c2ccccc12)C(=O)NCCCC[C@H](NC(=O)[C@H](Cc1c[nH]c2ccccc12)NC(=O)[C@H](CCCNC(=N)N)NC(=O)[C@H](Cc1c[nH]c2ccccc12)NC(=O)[C@@H](N)CCCNC(=N)N)C(=O)NCCCC[C@H](NC(=O)[C@H](CCCCNC(=O)[C@H](Cc1c[nH]c2ccccc12)NC(=O)[C@H](CCCNC(=N)N)NC(=O)[C@H](Cc1c[nH]c2ccccc12)NC(=O)[C@@H](N)CCCNC(=N)N)NC(=O)[C@H](Cc1c[nH]c2ccccc12)NC(=O)[C@H](CCCNC(=N)N)NC(=O)[C@H](Cc1c[nH]c2ccccc12)NC(=O)[C@@H](N)CCCNC(=N)N)C(=O)NCCC(N)=O (HELM PEPTIDE1{R.W.R.W.K.K.[bAla].[am]}|PEPTIDE2{R.W.R.W}|PEPTIDE3{R.W.R.W.K}|PEPTIDE4{R.W.R.W}$PEPTIDE1,PEPTIDE2,5:R3-4:R2|PEPTIDE3,PEPTIDE4,5:R3-4:R2|PEPTIDE1,PEPTIDE3,6:R3-5:R2$$$V2.0)	16.4 (≈ 5.11 µM)	131		23.6 (≈ 7.35 µM)	
NC(=O)CCNC(=O)[C@H](CCCCNC(=O)[C@H](CCCCNC(=O)[C@H](Cc1c[nH]c2ccccc12)NC(=O)[C@@H](N)Cc1cnc[nH]1)NC(=O)[C@H](Cc1c[nH]c2ccccc12)NC(=O)[C@@H](N)Cc1cnc[nH]1)NC(=O)[C@H](CCCCNC(=O)[C@H](Cc1c[nH]c2ccccc12)NC(=O)[C@@H](N)Cc1cnc[nH]1)NC(=O)[C@H](Cc1c[nH]c2ccccc12)NC(=O)[C@@H](N)Cc1cnc[nH]1	30.6 (≈ 17.3 µM)	1860	82.7 (≈ 46.8 µM)	43.3 (≈ 24.5 µM)	
CN[C@H](CC(C)C)C(=O)N[C@H]1C(=O)N[C@@H](CC(N)=O)C(=O)N[C@H]2C(=O)N[C@H]3C(=O)N[C@H](C(=O)N[C@H](C(=O)O)c4cc(O)cc(O)c4-c4cc3ccc4O)[C@H](O)c3ccc(c(Cl)c3)Oc3cc2cc(c3O[C@@H]2O[C@H](CO)[C@@H](O)[C@H](O)[C@H]2O[C@H]2C[C@](C)(N)[C@H](O)[C@H](C)O2)Oc2ccc(cc2Cl)[C@H]1O [VANCOMYCIN]					fold change (FC) [6]: 2.5
N=C(N)NCCC[C@H](N)C(=O)N[C@@H](Cc1ccc(O)cc1)C(=O)NCCCC[C@H](NC(=O)[C@H](Cc1ccc(O)cc1)NC(=O)[C@@H](N)CCCNC(=N)N)C(=O)NCCCC[C@H](NC(=O)[C@H](CCCCNC(=O)[C@H](Cc1ccc(O)cc1)NC(=O)[C@@H](N)CCCNC(=N)N)NC(=O)[C@H](Cc1ccc(O)cc1)NC(=O)[C@@H](N)CCCNC(=N)N)C(=O)NCCC(N)=O	12.6 (≈ 7.2 µM)	2150	193 (≈ 110 µM)	45.7 (≈ 26.1 µM)	
N=C(N)NCCC[C@H](N)C(=O)N[C@@H](Cc1c[nH]c2ccccc12)C(=O)NCCCC[C@H](NC(=O)[C@H](Cc1c[nH]c2ccccc12)NC(=O)[C@@H](N)CCCNC(=N)N)C(=O)NCCCC[C@H](NC(=O)[C@H](CCCCNC(=O)[C@H](Cc1c[nH]c2ccccc12)NC(=O)[C@@H](N)CCCNC(=N)N)NC(=O)[C@H](Cc1c[nH]c2ccccc12)NC(=O)[C@@H](N)CCCNC(=N)N)C(=O)NCCC(N)=O (H-RWK([Trp-Arg])K(Lys(α,ε-(ArgTrp)2))[βAla]-NH2)	3.9 (≈ 2.12 µM)	1960	42 (≈ 22.8 µM)	15 (≈ 8.14 µM)	Ratio [7]: 5; growth inhibition (GI) [8]: Active; growth inhibition (GI) [9]: Active; growth inhibition (GI) [10]: Active; Ratio [11]: 10
N=C(N)NCCC[C@H](NC(=O)[C@H](Cc1c[nH]c2ccccc12)NC(=O)[C@H](CCCNC(=N)N)NC(=O)[C@H](Cc1c[nH]c2ccccc12)NC(=O)[C@@H](N)CCCNC(=N)N)C(=O)N[C@@H](Cc1c[nH]c2ccccc12)C(=O)NCCCC[C@H](NC(=O)[C@H](Cc1c[nH]c2ccccc12)NC(=O)[C@H](CCCNC(=N)N)NC(=O)[C@H](Cc1c[nH]c2ccccc12)NC(=O)[C@H](CCCNC(=N)N)NC(=O)[C@H](Cc1c[nH]c2ccccc12)NC(=O)[C@@H](N)CCCNC(=N)N)C(=O)NCCCC[C@H](NC(=O)[C@H](CCCCNC(=O)[C@H](Cc1c[nH]c2ccccc12)NC(=O)[C@H](CCCNC(=N)N)NC(=O)[C@H](Cc1c[nH]c2ccccc12)NC(=O)[C@H](CCCNC(=N)N)NC(=O)[C@H](Cc1c[nH]c2ccccc12)NC(=O)[C@@H](N)CCCNC(=N)N)NC(=O)[C@H](Cc1c[nH]c2ccccc12)NC(=O)[C@H](CCCNC(=N)N)NC(=O)[C@H](Cc1c[nH]c2ccccc12)NC(=O)[C@H](CCCNC(=N)N)NC(=O)[C@H](Cc1c[nH]c2ccccc12)NC(=O)[C@@H](N)CCCNC(=N)N)C(=O)NCCC(N)=O (HELM PEPTIDE1{R.W.R.W.R.W.K.K.[bAla].[am]}|PEPTIDE2{R.W.R.W.R.W.K}|PEPTIDE3{R.W.R.W.R.W}|PEPTIDE4{R.W.R.W.R.W}$PEPTIDE1,PEPTIDE4,7:R3-6:R2|PEPTIDE1,PEPTIDE2,8:R3-7:R2|PEPTIDE2,PEPTIDE3,7:R3-6:R2$$$V2.0)	20.8 (≈ 4.54 µM)	365		31.7 (≈ 6.92 µM)	
GENTAMICIN					fold change (FC) [12]: 13; fold change (FC) [5]: 8
CC[C@H](C)[C@H](NC(C)=O)C(=O)N[C@@H](CC(C)C)C(=O)N1CCC[C@H]1C(=O)N[C@@H](Cc1c[nH]c2ccccc12)C(=O)N[C@@H](CCCCN)C(=O)N[C@@H](Cc1c[nH]c2ccccc12)C(=O)N1CCC[C@H]1C(=O)N[C@@H](Cc1c[nH]c2ccccc12)C(=O)N[C@@H](Cc1c[nH]c2ccccc12)C(=O)N1CCC[C@H]1C(=O)N[C@@H](Cc1c[nH]c2ccccc12)C(=O)N[C@@H](CCCNC(=N)N)C(=O)N[C@@H](CCCNC(=N)N)C(N)=O					growth inhibition (GI) [8]: Active; growth inhibition (GI) [9]: Active; growth inhibition (GI) [10]: Active
NCCCC[C@H](N)C(=O)N[C@@H](Cc1ccc(O)cc1)C(=O)NCCCC[C@H](NC(=O)[C@H](Cc1ccc(O)cc1)NC(=O)[C@@H](N)CCCCN)C(=O)NCCCC[C@H](NC(=O)[C@H](CCCCNC(=O)[C@H](Cc1ccc(O)cc1)NC(=O)[C@@H](N)CCCCN)NC(=O)[C@H](Cc1ccc(O)cc1)NC(=O)[C@@H](N)CCCCN)C(=O)NCCC(N)=O	84.4 (≈ 51.5 µM)	3740	360 (≈ 220 µM)	240 (≈ 147 µM)	
N=C(NCCCCCCNC(=N)NC(=N)Nc1ccc(Cl)cc1)NC(=N)Nc1ccc(Cl)cc1 [CHLORHEXIDINE]					fold change (FC) [12]: 5; fold change (FC) [6]: 2.5
N=C(N)NCCC[C@H](NC(=O)[C@H](Cc1c[nH]c2ccccc12)NC(=O)[C@H](CCCNC(=N)N)NC(=O)[C@H](Cc1c[nH]c2ccccc12)NC(=O)[C@H](CCCNC(=N)N)NC(=O)[C@H](Cc1c[nH]c2ccccc12)NC(=O)[C@@H](N)CCCNC(=N)N)C(=O)N[C@@H](Cc1c[nH]c2ccccc12)C(=O)O (H-RWRWRWRW-OH)					growth inhibition (GI) [8]: Active; growth inhibition (GI) [9]: Active; growth inhibition (GI) [10]: Active
